Tested on: 616215-338-R-J1-PDC complex spheroid viability
Assay: Anticancer human tumor 616215-338-R-J1-PDC patient-derived colon adenocarcinoma cell line growth inhibition [POLQ]
Conditions: for IC50: curve of first compound; for viability, T/C: stronger effect = lower value; active = viability on the fitted dose curve at most 10% of control; inactive = the rest
Method in brief: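 PDC + HUVEC + MSC complex spheroids; POLQ inhibitors ± partner drugs; top conc. at/near clinical Cmax, else 10 microM (SN-38 1 microM), half-log dilutions; 37 degrees C, 5% CO2.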

[1] = second compound 0.0316 µM, first compound 0.0316 µM
[2] = second compound 0.0316 µM, first compound 0.1 µM
[3] = second compound 0.0316 µM, first compound 0.316 µM
[4] = second compound 0.0316 µM, first compound 1 µM
[5] = second compound 0.0316 µM, first compound 3.16 µM
[6] = second compound 0.0316 µM, first compound 10 µM
[7] = second compound 0.1 µM, first compound 0.0316 µM
[8] = second compound 0.1 µM, first compound 0.1 µM
[9] = second compound 0.1 µM, first compound 0.316 µM
[10] = second compound 0.1 µM, first compound 1 µM
[11] = second compound 0.1 µM, first compound 3.16 µM
[12] = second compound 0.1 µM, first compound 10 µM
[13] = second compound 0.316 µM, first compound 0.0316 µM
[14] = second compound 0.316 µM, first compound 0.1 µM
[15] = second compound 0.316 µM, first compound 0.316 µM
[16] = second compound 0.316 µM, first compound 1 µM
[17] = second compound 0.316 µM, first compound 3.16 µM
[18] = second compound 0.316 µM, first compound 10 µM
[19] = second compound 1 µM, first compound 0.0316 µM
[20] = second compound 1 µM, first compound 0.1 µM
[21] = second compound 1 µM, first compound 0.316 µM
[22] = second compound 1 µM, first compound 1 µM
[23] = second compound 1 µM, first compound 3.16 µM
[24] = second compound 1 µM, first compound 10 µM
[25] = second compound 3.16 µM, first compound 0.0316 µM
[26] = second compound 3.16 µM, first compound 0.1 µM
[27] = second compound 3.16 µM, first compound 0.316 µM
[28] = second compound 3.16 µM, first compound 1 µM
[29] = second compound 3.16 µM, first compound 3.16 µM
[30] = second compound 3.16 µM, first compound 10 µM
[31] = second compound 10 µM, first compound 0.0316 µM
[32] = second compound 10 µM, first compound 0.1 µM
[33] = second compound 10 µM, first compound 0.316 µM
[34] = second compound 10 µM, first compound 1 µM
[35] = second compound 10 µM, first compound 3.16 µM
[36] = second compound 10 µM, first compound 10 µM
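Note: spheroids exposed to compounds for one week before readout.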
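Throughout, for viability, T/C: percent viability relative to DMSO vehicle wells taken as 100%.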

CCc1cc2c(N3CCc4c(cc(Cn5ccnc5)cc4-c4cn(C)nc4C(F)(F)F)C3=O)ccnc2c(OC)n1 + COC1C(OC(N)=O)C(O)C(Oc2ccc3c(O)c(NC(=O)c4ccc(O)c(CC=C(C)C)c4)c(=O)oc3c2C)OC1(C)C
8.33 µM: IC50 (second compound 10 µM)
9.75 µM: IC50 (second compound 1 µM)
9.64 µM: IC50 (second compound 3.16 µM)
inactive: viability, T/C [1] 97.2% | viability, T/C [2] 108% | viability, T/C [3] 111% | viability, T/C [4] 106% | viability, T/C [5] 80% | viability, T/C [6] 52.8% | viability, T/C [7] 106% | viability, T/C [8] 108% | viability, T/C [9] 92.9% | viability, T/C [10] 106% | viability, T/C [11] 77% | viability, T/C [12] 50.3% | viability, T/C [13] 96% | viability, T/C [14] 103% | viability, T/C [15] 115% | viability, T/C [16] 102% | viability, T/C [17] 66.5% | viability, T/C [18] 53.8% | viability, T/C [19] 105% | viability, T/C [20] 98.7% | viability, T/C [21] 99% | viability, T/C [22] 100% | viability, T/C [23] 81.4% | viability, T/C [24] 49.3% | viability, T/C [25] 106% | viability, T/C [26] 100% | viability, T/C [27] 103% | viability, T/C [28] 98.2% | viability, T/C [29] 74.8% | viability, T/C [30] 49.2% | viability, T/C [31] 109% | viability, T/C [32] 97.7% | viability, T/C [33] 102% | viability, T/C [34] 93.1% | viability, T/C [35] 67.7% | viability, T/C [36] 46.7%
> 10 µM: IC50 (second compound 0.0316 µM) | IC50 (second compound 0.1 µM) | IC50 (second compound 0.316 µM)

COc1ccc([C@@H](O)c2cc(-c3ncnc4cc(N5CCOCC5)ccc34)c(F)cc2Cl)nn1 + COC1C(OC(N)=O)C(O)C(Oc2ccc3c(O)c(NC(=O)c4ccc(O)c(CC=C(C)C)c4)c(=O)oc3c2C)OC1(C)C
inactive: viability, T/C [1] 109% | viability, T/C [2] 105% | viability, T/C [3] 110% | viability, T/C [4] 99.4% | viability, T/C [5] 105% | viability, T/C [6] 76.1% | viability, T/C [7] 109% | viability, T/C [8] 99% | viability, T/C [9] 109% | viability, T/C [10] 109% | viability, T/C [11] 113% | viability, T/C [12] 73.5% | viability, T/C [13] 107% | viability, T/C [14] 101% | viability, T/C [15] 108% | viability, T/C [16] 100% | viability, T/C [17] 114% | viability, T/C [18] 77.7% | viability, T/C [19] 96.7% | viability, T/C [20] 101% | viability, T/C [21] 116% | viability, T/C [22] 117% | viability, T/C [23] 110% | viability, T/C [24] 66.3% | viability, T/C [25] 95.7% | viability, T/C [26] 104% | viability, T/C [27] 100% | viability, T/C [28] 119% | viability, T/C [29] 108% | viability, T/C [30] 69.7% | viability, T/C [31] 104% | viability, T/C [32] 94.2% | viability, T/C [33] 111% | viability, T/C [34] 107% | viability, T/C [35] 110% | viability, T/C [36] 66.5%
> 10 µM: IC50 (second compound 0.0316 µM) | IC50 (second compound 0.1 µM) | IC50 (second compound 0.316 µM) | IC50 (second compound 1 µM) | IC50 (second compound 3.16 µM) | IC50 (second compound 10 µM)

Cn1ncnc1[C@H]1c2n[nH]c(=O)c3cc(F)cc(c23)N[C@@H]1c1ccc(F)cc1 + COC1C(OC(N)=O)C(O)C(Oc2ccc3c(O)c(NC(=O)c4ccc(O)c(CC=C(C)C)c4)c(=O)oc3c2C)OC1(C)C
> 0.1 µM: IC50 (second compound 0.0316 µM) | IC50 (second compound 0.1 µM) | IC50 (second compound 0.316 µM) | IC50 (second compound 1 µM) | IC50 (second compound 3.16 µM) | IC50 (second compound 10 µM)
inactive: viability, T/C (second compound 0.0316 µM, first compound 0.000316 µM) 103% | viability, T/C (second compound 0.0316 µM, first compound 0.001 µM) 107% | viability, T/C (second compound 0.0316 µM, first compound 0.00316 µM) 105% | viability, T/C (second compound 0.0316 µM, first compound 0.01 µM) 107% | viability, T/C [1] 102% | viability, T/C [2] 102% | viability, T/C (second compound 0.1 µM, first compound 0.000316 µM) 97.2% | viability, T/C (second compound 0.1 µM, first compound 0.001 µM) 90.8% | viability, T/C (second compound 0.1 µM, first compound 0.00316 µM) 102% | viability, T/C (second compound 0.1 µM, first compound 0.01 µM) 103% | viability, T/C [7] 101% | viability, T/C [8] 109% | viability, T/C (second compound 0.316 µM, first compound 0.000316 µM) 95.5% | viability, T/C (second compound 0.316 µM, first compound 0.001 µM) 106% | viability, T/C (second compound 0.316 µM, first compound 0.00316 µM) 98.9% | viability, T/C (second compound 0.316 µM, first compound 0.01 µM) 104% | viability, T/C [13] 109% | viability, T/C [14] 95.9% | viability, T/C (second compound 1 µM, first compound 0.000316 µM) 106% | viability, T/C (second compound 1 µM, first compound 0.001 µM) 95.7% | viability, T/C (second compound 1 µM, first compound 0.00316 µM) 108% | viability, T/C (second compound 1 µM, first compound 0.01 µM) 105% | viability, T/C [19] 107% | viability, T/C [20] 104% | viability, T/C (second compound 3.16 µM, first compound 0.000316 µM) 109% | viability, T/C (second compound 3.16 µM, first compound 0.001 µM) 98.5% | viability, T/C (second compound 3.16 µM, first compound 0.00316 µM) 102% | viability, T/C (second compound 3.16 µM, first compound 0.01 µM) 101% | viability, T/C [25] 102% | viability, T/C [26] 105% | viability, T/C (second compound 10 µM, first compound 0.000316 µM) 105% | viability, T/C (second compound 10 µM, first compound 0.001 µM) 101% | viability, T/C (second compound 10 µM, first compound 0.00316 µM) 103% | viability, T/C (second compound 10 µM, first compound 0.01 µM) 117% | viability, T/C [31] 105% | viability, T/C [32] 97.1%

From PubChem BioAssay AID1963843 (Molecular Pharmacology Branch, DTP, NCI, 2024)
